In US20240400546A1, “COMPOUNDS AND USES THEREOF” (JANSSEN PHARMACEUTICA NV, priority 2016, published 2024):
Where “and” joins values, the source holds several entries; their conditions need not be identical. Identical values can stand only once.

Key:
Assay type in all cases: cell-based
SCD5 = target: T1, SCD5 (Homo sapiens, UniProt Q86SK9); test: Growth inhibition of humanized yeast expressing SCD5 as sole desaturase
T1 construct: host or cells: S. cerevisiae ole1Δ strain, plasmid pRS316 with TDH3 promoter and CYC1 terminator
T1 sequence (Q86SK9 1-330): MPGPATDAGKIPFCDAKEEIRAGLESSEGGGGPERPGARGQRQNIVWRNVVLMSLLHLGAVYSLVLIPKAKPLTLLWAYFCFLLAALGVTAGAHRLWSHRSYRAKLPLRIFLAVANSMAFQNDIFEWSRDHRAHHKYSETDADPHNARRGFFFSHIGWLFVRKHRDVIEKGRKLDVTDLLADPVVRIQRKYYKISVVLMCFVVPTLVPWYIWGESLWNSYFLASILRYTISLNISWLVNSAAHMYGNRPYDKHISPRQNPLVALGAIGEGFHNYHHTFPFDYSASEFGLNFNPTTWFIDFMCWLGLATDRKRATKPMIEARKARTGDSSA
Description: (§1) Strain ole1Δ (yeast ole1 deletion mutant) was constructed by deleting OLE1 with NAT-MX6 in BY4741, amplifying the deletion cassette from the genomic DNA of the resulting strain with primers flanking the ORF by 1000 bp upstream and downstream, transforming the resulting deletion cassette into W303 pdr1Δ pdr3Δ, and plating transformants on YPD media containing G418 (200 μg/mL) and nourseothricin (100 μg/mL) with 0.01% TWEEN®-20 and 0.5 mM oleic and palmitoleic acids.
(§2) The coding sequence of yeast OLE1 was also cloned into this plasmid). These clones were then transformed into the ole1Δ strain and plated on CSM-Ura media (CSM lacking uracil) with 2% glucose (w/v) and independent colonies were isolated and amplified.
(§3) All compound profiling experiments were performed using the same basic protocol. Different genetic backgrounds (e.g., gene deletions) or conditions (e.g., addition of oleic and palmitoleic acid) were replaced as indicated below.
(§4) Yeast were cultured using standard techniques in complete synthetic media (CSM) and yeast nitrogen base supplemented with 2% (w/v) carbon source (glucose, raffinose, or galactose) to regulate the expression of the toxic disease protein. An initial starter culture was inoculated in 3 mL CSM-Glucose media and incubated overnight in a 30° C. shaker incubator (225 rpm). Saturated morning cultures were then diluted 1:20 in fresh CSM-Raffinose media and grown for 6 h to an OD600 (optical density) of ˜0.4-0.8 at 30° C. with shaking.
(§5) Compound administration was performed in two separate steps. First, 15 μL of CSM-Galactose (induces expression of toxic protein) was dispensed into clear 384 well assay plates using a MULTIDROP™ Combi reagent dispenser. […] The cultures described above were then diluted to a 2× concentration (0.03 and 0.08 for alpha-synuclein and ApoE, final OD600 of 0.015 and 0.04) in CSM-Galactose. For wild-type and Ole1/SCD1/SCD5 plasmid-containing strains, the 2× cell density was 0.02. […] For 96-well assays (FIGS. 1A and 1B), compound dilutions in DMSO were generated in 96 well plates and 1 μL was manually pipetted into 96 well clear bottom assay plates.
(§6) For experiments using a plasmid-borne copy of Ole1, SCD1, or SCD5 (FIGS. 3B, 6, and 7), media lacking uracil (SX-Ura, where X is glucose, raffinose, or galactose), was used for all steps of the compound profiling protocol to ensure its maintenance throughout the assay.
(§7) After yeast delivery, assay plates were incubated under humidified conditions at 30° C. for 24 to 40 h. ApoE4 rescue experiments were stopped at 24 h, aSyn experiments at 40 h, Ole1 at 24 h, and SCD1/SCD5 at 40 h. The growth of yeast was monitored by reading the OD600 of each well using a microplate reader (Perkin Elmer EnVision™).

SCD1 = target: T2, SCD1 (Homo sapiens, UniProt O00767); test: Growth inhibition of humanized yeast expressing SCD1 as sole desaturase
T2 construct: host or cells: S. cerevisiae ole1Δ strain, plasmid pRS316 with TDH3 promoter and CYC1 terminator
T2 sequence (O00767 1-359): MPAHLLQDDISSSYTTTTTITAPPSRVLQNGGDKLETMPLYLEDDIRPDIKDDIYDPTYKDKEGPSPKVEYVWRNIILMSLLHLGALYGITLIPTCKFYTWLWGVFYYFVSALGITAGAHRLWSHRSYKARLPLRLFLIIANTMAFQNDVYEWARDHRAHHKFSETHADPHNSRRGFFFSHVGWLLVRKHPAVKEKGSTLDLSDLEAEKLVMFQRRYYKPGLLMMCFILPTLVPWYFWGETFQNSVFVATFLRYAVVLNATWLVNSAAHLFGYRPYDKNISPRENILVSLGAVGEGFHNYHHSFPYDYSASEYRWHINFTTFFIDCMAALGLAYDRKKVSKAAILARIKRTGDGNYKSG
Description: as §1, §2, §3, §4, §5, §6, §7

Ole1 = target: T3, Ole1 (Saccharomyces cerevisiae, UniProt P21147); test: Growth inhibition of yeast expressing Ole1 as sole desaturase; conditions: FIG. 6
T3 construct: expressed in transfected cells; host or cells: S. cerevisiae ole1Δ strain (W303 pdr1Δ pdr3Δ background), plasmid pRS316 with TDH3 promoter and CYC1 terminator
T3 sequence (P21147 1-510): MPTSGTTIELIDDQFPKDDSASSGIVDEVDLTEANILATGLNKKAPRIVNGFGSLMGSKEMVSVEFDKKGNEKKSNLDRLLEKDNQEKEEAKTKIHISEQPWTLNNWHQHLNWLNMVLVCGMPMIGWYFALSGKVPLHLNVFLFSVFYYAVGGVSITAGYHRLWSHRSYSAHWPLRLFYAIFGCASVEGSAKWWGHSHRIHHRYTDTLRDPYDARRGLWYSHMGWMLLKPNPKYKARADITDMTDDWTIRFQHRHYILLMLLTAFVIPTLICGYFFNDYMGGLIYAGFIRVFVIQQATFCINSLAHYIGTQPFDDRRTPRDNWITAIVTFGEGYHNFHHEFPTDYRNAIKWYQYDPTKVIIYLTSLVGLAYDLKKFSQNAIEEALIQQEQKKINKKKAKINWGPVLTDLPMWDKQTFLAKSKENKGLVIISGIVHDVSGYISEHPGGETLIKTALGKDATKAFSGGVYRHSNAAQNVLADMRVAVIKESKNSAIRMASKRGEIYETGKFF
Description: as §1, §2, §3, §4, §5, §6, §7

[1] = humanized yeast expressing human SCD5
[2] = humanized yeast expressing human SCD1
[3] = growth of humanized yeast strain expressing human SCD1
[4] = growth of humanized yeast strain expressing human SCD5

SMILES | IC50 (SCD1; [2]) [µM] | other results
O=C([C@H]1CC(=O)N(c2ccccc2)C1)N1CCC(c2nc(N3CC4(COC4)C3)no2)CC1 [Compound 316] |  | IC50 (SCD5; [1]): ≥ 45 µM
Cc1nn(C)c2cc(-c3nc(C4CCN(C(=O)OC(C)(C)C)CC4)no3)ccc12 [Compound 319] |  | SCD5 % Max Inhibition (SCD5; humanized yeast expressing SCD5): 4.96% and 10.94%
O=C(C1CC(=O)N(c2cccc(Cl)c2)C1)N1CCC(c2nc(Cl)no2)CC1 (centres unmarked) [Compound 348] |  | IC50 (SCD5; [1]): ≥ 45 µM
N#Cc1cccc(N2CC(C(=O)N3CCC(c4nc(Cl)no4)CC3)CC2=O)c1 (centres unmarked) [Compound 350] |  | IC50 (SCD5; [1]): ≥ 45 µM
O=C(c1ccccc1)N1CCC(c2nc(Cl)no2)CC1 [Compound 351] |  | IC50 (SCD5; [1]): ≥ 45 µM
CC(C)n1ncc2ccc(-c3noc(N4CCN(C(=O)OC5CC5)CC4)n3)cc21 [Compound 496] |  | IC50 (SCD5; [1]): 0.445 µM
CC(C)n1ncc2ccc(-c3noc(C4CCNCC4)n3)cc21 [Compound 500] | > 45 | IC50 (SCD5; [1]): > 45 µM
CC(C)n1ncc2ccc(N3CC4(CCN(C(=O)OC(C)(C)C)CC4)C3)cc21 [Compound 511] | > 45 | IC50 (SCD5; [1]): 3.39 µM
CC1=NN(C)C2C=C(c3noc([C@H]4CC[C@H](O)CC4)n3)C=CC12 (some centres unmarked) [Compound 526] | > 45 | IC50 (SCD5; [1]): > 45 µM
Cc1noc(N2CCC(c3nc(-c4ccc5c(C)nn(C)c5c4)no3)CC2)n1 [Compound 543] | > 45 | IC50 (SCD5; [1]): ≥ 45 µM
CC(C)n1ncc2ccc(-c3nc(C4CCN(C(=O)c5cccc(F)c5)CC4)no3)cc21 [Compound 547] |  | IC50 (SCD5; [1]): 44.3 µM
Cc1nn(C)c2cc(-c3noc(C4CCN(C(=O)CNC(=O)c5ccc(Cl)cc5)CC4(F)F)n3)ccc12 (centres unmarked) [Compound 553] | 5.71 | IC50 (SCD5; [1]): 0.885 µM
CC(C)N1C(=O)CCc2ccc(-c3noc(C4CCN(C(=O)OC(C)(C)C)CC4)n3)cc21 [Compound 572] | > 45 | 
CC(C)n1ncc2ccc(-c3noc(C4CCN(C(=O)c5cscn5)CC4)n3)cc21 [Compound 573] | > 45 | 
CC(C)n1ncc2ccc(-c3noc(C4CCN(C(=O)c5cccs5)CC4)n3)cc21 [Compound 574] | > 45 | 
CC(C)n1ncc2ccc(-c3noc(C4CCN(C(=O)c5ccsc5Cl)CC4)n3)cc21 [Compound 575] | > 45 | 
CC1(OC(=O)N2CCC(c3nc(-c4ccc5cnn(C6COC6)c5c4)no3)CC2)CC1 [Compound 576] | > 45 | 
Cc1nn(C)c2cc(-c3noc([C@@H]4CCN(C(=O)CNC(=O)c5ccccc5)CC4(F)F)n3)ccc12 [Compound 577] | > 45 | 
Cc1nn(C)c2cc(-c3noc(C4CCN(c5nc(C(C)C)no5)CC4)n3)ccc12 [Compound 581] | > 45 | 
CC(C)n1ncc2ccc(-c3nc(N4CCN(C(=O)c5ccccc5)CC4)no3)cc21 [Compound 582] | > 45 | 
CC(C)n1ncc2ccc(-c3noc(C4CCN(C(=O)c5ccc(Cl)cn5)CC4)n3)cc21 [Compound 586] | > 45 | 
CC(C)n1ncc2ccc(-c3noc(C4CCN(C(=O)c5ncccc5Cl)CC4)n3)cc21 [Compound 587] | > 45 | 

SMILES | IC50 (SCD1; [2]) [µM] | other results
CC(C)n1ncc2ccc(-c3noc(C4CCN(C(=O)c5ccsn5)CC4)n3)cc21 [Compound 588] | > 45 | 
CC(C)n1ncc2ccc(-c3noc(C4CCN(C(=O)c5ncc(Cl)s5)CC4)n3)cc21 [Compound 589] | > 45 | 
Cc1noc2cc(-c3noc(C4CCN(C(=O)OC5(C)CC5)CC4)n3)ccc12 [Compound 590] | > 45 | 
Cc1noc2cc(-c3noc(C4CCN(C(=O)CC5(C)CC5)CC4)n3)ccc12 [Compound 591] | > 45 | 
Cc1nn(C)c2cc(-c3noc(C4CCN(C(=O)CC5COC5)CC4)n3)ccc12 [Compound 592] | > 45 | 
CC(C)n1ncc2ccc(-c3noc(N4CCN(C(=O)OCC(F)(F)F)CC4)n3)cc21 [Compound 593] | > 45 | 
CC(C)n1ncc2ccc(N3CC4(CCN(C(=O)OC5CC5)CC4)C3)cc21 [Compound 594] | > 45 | 
COCC(=O)N1CCN(c2nc(-c3ccc4cnn(C(C)C)c4c3)no2)CC1 [Compound 595] | > 45 | 
CC(C)n1ncc2ccc(-c3noc([C@H]4CC[C@H](N)CC4)n3)cc21 [Compound 596] | > 45 | 
C[C@@H](O)C(=O)N1CCC(c2nc(-c3ccc4cnn(C5COC5)c4c3)no2)CC1 [Compound 597] | > 45 | 
O=C(NCC(=O)N1CCC(c2nc(-c3ccc4cnn(C5COC5)c4c3)no2)CC1)c1ccccc1 [Compound 598] | > 45 | 
N#Cc1cccc(N2C[C@@H](C(=O)N3CCC(c4nc(-c5ccc6cnn(C7COC7)c6c5)no4)CC3)CC2=O)c1 [Compound 599] | > 45 | 
N#Cc1cccc(N2C[C@H](C(=O)N3CCC(c4nc(-c5ccc6cnn(C7COC7)c6c5)no4)CC3)CC2=O)c1 [Compound 600] | > 45 | 
CC(C)n1ncc2ccc(-c3noc(C4CCN(C(=O)c5ncco5)CC4)n3)cc21 [Compound 615] |  | IC50 (SCD1; [3]): 0.848 µM; IC50 (SCD5; [4]): 1.88 µM
Cc1cc(N2CCN(c3nc(-c4ccc5cnn(C(C)C)c5c4)no3)CC2)on1 [Compound 657] |  | IC50 (SCD1; [3]): > 45 µM; IC50 (SCD5; [4]): 9.11 µM
CC(C)n1ncc2ccc(N3CC4(CCN(C(=O)OC(C)(C)C)CC4)C3)cc21 [Compound 663] |  | IC50 (SCD1; [3]): > 45 µM; IC50 (SCD5; [4]): 0.01 µM
CC(C)(C)OC(=O)N1CCN(c2noc(-c3ccc4cnn(C5COC5)c4c3)n2)CC1 [Compound 750] |  | IC50 (SCD1; humanized yeast strain, 40 h): 3.25 µM; IC50 (SCD5; humanized yeast strain, 40 h): 0.01 µM
COCC(C)(C)n1ncc2ccc(-c3noc(C4CCN(C(=O)OC(C)(C)C)CC4)n3)cc21 [Compound 788] |  | IC50 (SCD1; humanized yeast strain, 40 h): > 45 µM; IC50 (SCD5; humanized yeast strain, 40 h): 6.22 µM
COC(=O)C1CCCN(c2noc(-c3ccc4cnn(C5COC5)c4c3)n2)CC1 (centres unmarked) [Compound 857] |  | IC50 (SCD1; humanized yeast strain, 40 h): > 45 µM; IC50 (SCD5; humanized yeast strain, 40 h): 26.8 µM
CC(=O)N1CC(n2cc3ccc(-c4nc(C5CCN(C(=O)OC(C)(C)C)CC5)no4)cc3n2)C1 [Compound 862] |  | IC50 (SCD1; humanized yeast strain, 40 h): 33.8 µM; IC50 (SCD5; humanized yeast strain, 40 h): 0.01 µM
O=C(O)Cn1nnc(-c2cc(N3CCC(Oc4cc(F)ccc4Br)CC3)no2)n1 [MK-8245, reference compound] |  | Sensitivity of yeast expressing OLE1 to known SCD1/SCD5 inhibitors (Ole1): resistant; half-maximal inhibitory concentration (IC50), SCD5 humanized strain (SCD5; FIG. 6): low nanomolar
